pIC50: −log10 of the molar value. Several values for one entry are separate records, joined by “and”; a condition that tells them apart may be missing. Identical values can stand only once. Like-named read-outs stand apart in the source and are kept apart here.
Target: T1, DrOTOP1 (Danio rerio, UniProt Q7ZWK8)
T1 construct: A previously generated codon-optimized full-length DrOTOP1[8]; (UniProt: Q7ZWK8) construct; expressed in transfected cells; host or cells: HEK-293 (CRL-1573, ATCC)
T1 sequence (Q7ZWK8 1-586): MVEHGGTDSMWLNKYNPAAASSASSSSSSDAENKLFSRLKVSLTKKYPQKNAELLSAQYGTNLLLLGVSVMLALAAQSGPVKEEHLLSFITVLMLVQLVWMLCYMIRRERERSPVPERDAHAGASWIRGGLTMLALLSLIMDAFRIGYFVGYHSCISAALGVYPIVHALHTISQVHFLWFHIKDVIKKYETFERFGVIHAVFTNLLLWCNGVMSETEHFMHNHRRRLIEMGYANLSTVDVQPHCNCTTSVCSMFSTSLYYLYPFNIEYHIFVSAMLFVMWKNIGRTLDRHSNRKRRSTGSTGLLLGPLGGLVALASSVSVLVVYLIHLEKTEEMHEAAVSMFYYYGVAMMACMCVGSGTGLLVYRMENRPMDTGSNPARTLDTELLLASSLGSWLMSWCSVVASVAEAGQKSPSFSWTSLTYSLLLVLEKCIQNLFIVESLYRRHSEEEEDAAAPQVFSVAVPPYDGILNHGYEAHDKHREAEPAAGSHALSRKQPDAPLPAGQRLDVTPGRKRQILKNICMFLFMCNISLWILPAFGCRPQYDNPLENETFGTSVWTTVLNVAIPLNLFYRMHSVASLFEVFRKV
Test: Whole-cell patch-clamp, inhibition of acid-evoked currents, WT DrOTOP1 expressed in HEK-293 cells
Type: cell-based, zebrafish (Danio rerio)
Set-up: key to inhibition of acid-evoked current, mean (Mean 1): % inhibition = ((I2peak-I1)/I2peak)*100
Settings: for inhibition at 200 µM: read-out: Inhibition of currents
Description: The 50 molecules identified were individually tested by whole-cell patch-clamp electrophysiology for effects on DrOTOP1 expressed in human embryonic kidney (HEK)−293 cells. […] This approach enabled us to observe the on- and off-responses of each compound. To quantify the effect of each compound, we compared the current magnitude during compound application immediately before wash-off, to the peak inward current following its removal (Supplementary Fig. 2A).
HEK-293 cells (CRL-1573, ATCC) were cultured in DMEM (Thermofisher 11995073) containing 10% fetal bovine serum (Life Technology 16000044) and Penicillin-Streptomycin (100 I.U./mL) and (100 µg/mL), respectively. Cells were transfected with WT DrOTOP1 or mutant DrOTOP1 channels in 35 mm petri dishes, with ~ 500 ng DNA and 2 μL TransIT-LT1 transfection reagent (Mirus Bio Corporation, Cat # MIR2300) following the manufacturer’s protocol. All constructs were subcloned into a pcDNA3.1 vector that adds an N-terminal fusion tag consisting of an octahistidine tag followed by eGFP, a Gly-Thr-Gly-Thr linker and a 3C protease cleavage site ([…]) followed by WT DrOTOP1, WT mOTOP1, WT hOTOP1, or mutated DrOTOP1. Point mutations were generated via In-Fusion Cloning (Takara) using single-stranded DNA primers generated through IDT and sequence confirmed by Sanger sequencing (GeneWiz).
Whole-cell patch-clamp recording was performed as previously described[6],[22],[25]. Recordings were made with an Axopatch 200B amplifier, digitized with a Digidata 1322a 16-bit data acquisition system, acquired with pClamp 8.2 and analyzed with Clampfit 10 (Molecular Devices). Recordings were sampled at 5 kHz and filtered at 1 kHz. Patch Pipettes with resistance of […] were fabricated from borosilicate glass, and only recordings with a giga-Ohm seal were used in analysis. Membrane potential was held at −80 mV for the duration of recordings. At the beginning of recordings and between, cells were washed with Tyrode’s solution (see below). Once a giga-Ohm seal was reached, cells were lifted and placed in front of microcapillary tubes controlled by a Fast-Step perfusion system (Warner Instruments) so that extracellular solutions could be rapidly exchanged during each experiment.
Standard Tyrode’s solution consisted of 145 mM NaCl, 5 mM KCl, MgCl2, 2 mM CaCl2, 20 mM D-Glucose, and 10 mM HEPES (for pH 7.4). All other extracellular patch-clamp solutions contained 160 mM NMDG-Cl, 2 mM CaCl2, and the following buffers: 10 mM HEPES (for pH 7.4), 10 mM MES (for pH 6.5-5.5), 10 mM CHES for pH 10, and 10 mM HomoPIPES for (pH 5.0). pH adjusted with HCl. […] The pipette contained intracellular solution made up of 120 mM Cs-aspartate, 15 mM CsCl, 2 mM Mg-ATP, 5 mM EGTA, 2.4 mM CaCl2 (100 nM free Ca^2+), and 10 mM HEPES with a pH of 7.3. All extracellular solution osmolarity was adjusted to 300 mOsm and intracellular osmolarity was adjusted to 290 mOsm.
All data are presented as mean ± SEM unless otherwise noted, and each data point represents an independent replicant. Inhibition of compounds was quantified as ((I2peak-I1)/(I2peak))*100, where I1 is the current immediately before wash-off and I2peak is the maximum recovered current (Supplementary Fig. 2). Hill coefficients were determined by the following equation: Y = Bmax*X^h/(Kd^h + X^h).

[1] = 10 µM, pH 5, WT DrOTOP1, single cells
[2] = 10 µM, pH 6, WT DrOTOP1, single cells
[3] = 30 µM, pH 5, WT DrOTOP1, single cells
[4] = 30 µM, pH 6, WT DrOTOP1, single cells
[5] = 100 µM, pH 5, WT DrOTOP1, single cells
[6] = 100 µM, pH 6, WT DrOTOP1, single cells
[7] = 200 µM, pH 5.5, WT DrOTOP1, dose-response, single cells
[8] = 300 µM, pH 5.5, WT DrOTOP1, single cells
[9] = HEK293, pH 5, 30 µM, pH 5, WT DrOTOP1, single cells
[10] = HEK293, pH 5.5, 200 µM, pH 5.5, WT DrOTOP1, dose-response, single cells
[11] = HEK293, pH 5.5, 300 µM, pH 5.5, WT DrOTOP1, single cells
[12] = HEK293, pH 6, 10 µM, pH 6, WT DrOTOP1, single cells
[13] = HEK293, pH 6, 30 µM, pH 6, WT DrOTOP1, single cells
[14] = HEK293, pH 6, 100 µM, pH 6, WT DrOTOP1, single cells

SMILES	Inhibition of currents [1]	Inhibition of currents [2]	Inhibition of currents [3]	Inhibition of currents [4]	Inhibition of currents [5]	Inhibition of currents [6]	Inhibition of currents [7]	Inhibition of currents [8]	inhibition at 30 µM [9]	inhibition at 200 µM [10]	inhibition at 300 µM [11]	inhibition at 10 µM [12]	inhibition at 30 µM [13]	inhibition at 100 µM [14]	Hill coefficient (pH 5.0, WT DrOTOP1)	pIC50 (pH 5.0, WT DrOTOP1)	Hill coefficient (pH 5.5, WT DrOTOP1)	pIC50 (pH 5.5, WT DrOTOP1)	Hill coefficient (pH 6.0, WT DrOTOP1)	pIC50 (pH 6.0, WT DrOTOP1)	other results
C=C(C)COc1ccccc1NC(=O)c1nc[nH]c1C [C2.2]	57.3692% and 44.5762% and 37.4476% and 30.9804% and 33.0274%	62.6907% and 69.8462% and 72.5518% and 60.5453%	79.1499% and 75.7339% and 78.9474%	89.6104% and 92.0062%	98.8642% and 100.372%	101.656% and 100.935% and 99.4036%	99.9505% and 99.4475% and 98.9119%	99.8351% and 99.4122% and 98.63%	79.1%	100%	99.9%	62.3%	80.7%	100%	1.53	4.90	1.52 and 1.5	5.18	1.25	5.22	Inhibition of currents (0.1 µM, pH 5.5, WT DrOTOP1, single cells): 2.61% and 0.5081% and 0.05491%; Inhibition of currents (0.3 µM, pH 5.5, WT DrOTOP1, single cells): 3.209% and 3.843%; Inhibition of currents (1 µM, pH 5, WT DrOTOP1, single cells): 3.034% and 6.744% and 2.835%; Inhibition of currents (1 µM, pH 5.5, WT DrOTOP1, single cells): 3.496% and 5.882% and 11.0667%; Inhibition of currents (1 µM, pH 6, WT DrOTOP1, single cells): 7.93% and 17.0523% and 15.485%; Inhibition of currents (3 µM, pH 5.5, WT DrOTOP1, single cells): 21.7626% and 20.6603%; Inhibition of currents (30 µM, pH 5.5, WT DrOTOP1, single cells): 91.4446% and 86.3672% and 87.3001% and 85.4679%; Inhibition of pH 5.5-induced currents, screen 2 (200 µM compound, HEK-293 cells expressing DrOTOP1, Vm -80 mV, values of single cells, FDA 1-3 = FDA-approved drugs): fully blocked; inhibition at 100 µM (HEK293, pH 5, 100 µM, pH 5, WT DrOTOP1, single cells): 99.1%; inhibition at 0.3 µM (HEK293, pH 5.5, 0.3 µM, pH 5.5, WT DrOTOP1, single cells): 2.64%; inhibition at 3 µM (HEK293, pH 5.5, 3 µM, pH 5.5, WT DrOTOP1, single cells): 17%; inhibition at 30 µM (HEK293, pH 5.5, 30 µM, pH 5.5, WT DrOTOP1, single cells): 88.3%; inhibition at 100 µM (HEK293, pH 5.5, 100 µM, pH 5.5, WT DrOTOP1, single cells): 99.4%; Mean, Fig 5N (WT + C2.2, n=8): 31.97; inhibition of acid-evoked current, mean (Mean 1) (WT DrOTOP1, Supp. Fig 5E stats): 99.31; inhibition of acid-evoked current, mean (Mean 1) (WT DrOTOP1, Supp. Fig 5F stats): 65.72
O=C(/C(=N\O)c1ccccc1)c1ccccc1 [C11, benzil monoxime]	4.424% and 3.103%	7.181% and 5.566% and 5.627%	24.2292% and 16.076%	21.9002% and 19.6399% and 27.9569%	50.6107% and 59.4827% and 56.6039% and 73.4375%	58.9165% and 51.9948% and 54.7438% and 59.958%	92.006% and 94.7798% and 86.5734%	100.665% and 98.5727% and 97.2447%	16.2%	96.6%	102%	5.56%	19%	68.6%	1.88	4.12	2.2 and 2.21	4.12	1.67	4.15	Inhibition of currents (10 µM, pH 5.5, WT DrOTOP1, single cells or mean): 3.913% and 2.872% and 1.269% and 1.559%; Inhibition of pH 5.5-induced currents, screen 1 (200 µM compound, HEK-293 cells expressing DrOTOP1, Vm -80 mV, values of single cells): nearly fully inhibited; Inhibition of currents (200 µM, pH 5, WT DrOTOP1, single cells): 88.3451% and 83.853%; Inhibition of currents (200 µM, pH 6, WT DrOTOP1, single cells): 84.9844% and 81.9304% and 93.4599%; Inhibition of currents (300 µM, pH 5, WT DrOTOP1, single cells): 96.0707% and 96.7562%; Inhibition of currents (300 µM, pH 6, WT DrOTOP1, single cells): 97.5242% and 103.48%; inhibition at 10 µM (HEK293, pH 5, 10 µM, pH 5, WT DrOTOP1, single cells): 3.81%; inhibition at 200 µM (HEK293, pH 5, 200 µM, pH 5, WT DrOTOP1, single cells): 80.8%; inhibition at 300 µM (HEK293, pH 5, 300 µM, pH 5, WT DrOTOP1, single cells): 101%; inhibition at 200 µM (HEK293, pH 6, 200 µM, pH 6, WT DrOTOP1, single cells): 89.5%; inhibition at 300 µM (HEK293, pH 6, 300 µM, pH 6, WT DrOTOP1, single cells): 99.8%
